Literature values as cited in article PMC4228152 (BMC Pulmonary Medicine, 2014).
Where two headings read alike, the source gives them in different places.

Experiments:
[1] = test system: allergen induced asthmatic response
monocytes = test system: monocytes; parameters: method as in PMID 11865966; conditions: subjects after 4 weeks treatment
[2] = administered orally
[3] = inhaled inhibitor, read-out: IC50

| IC50 (PDE4; [3]) | IC50 (PDE4A) | IC50 (PDE4B) | IC50 (PDE4D) | IC50 (PDE4; average of three isoforms, read-out: IC50 average for PDE4-A, -B and -D) | mean Cmax [2] | SMILES | reduction in LAR ([1]; inhaled) | fall in LAR ([1]; inhaled) | reduction in LAR AUC ([1]; oral) | inhibition of the maximal fall in the EAR ([1]; orally administered) | inhibition of the maximal fall in the LAR ([1]; orally administered) | inhibition of LPS-induced TNFα release in monocytes ex vivo (monocytes) |
| --- | --- | --- | --- | --- | --- | --- | --- | --- | --- | --- | --- | --- |
| 0.0032 nM |  |  |  |  |  | COc1cccc(Nc2c(C(N)=O)cnc3c(C)cc(S(=O)(=O)c4cccc(C(=O)N(C)C)c4)cc23)c1 [GSK256066] | 34% |  |  |  |  |  |
| 0.026 nM |  |  |  |  |  | CS(=O)(=O)Nc1ccc(C(=O)O[C@@H](Cc2c(Cl)c[n+]([O-])cc2Cl)c2ccc(OC(F)F)c(OCC3CC3)c2)cc1OCC1CC1 [CHF6001] |  | 30% |  |  |  |  |
|  | […] | […] | […] | 0.5 nM | 2,000 pg/ml | O=C(Nc1c(Cl)cncc1Cl)c1ccc(OC(F)F)c(OCC2CC2)c1 [roflumilast] |  |  | 43% | 14-28% | 16-43% | 1.3 fold |
